Tests used:
[1] = Dissolving tests with ERr 731 dry extract in ethanol and glycerol; format: physicochemical; conditions: for dissolved proportion, % of theory, Test B / content found in solution, Test B: 200 mg of dry extract in 50 ml of ethanol 30% R; for content found in solution, Test B / content found in solution, Test C / content found in solution, Test D / content found in solution, Test A: extract content 61.9% rhaponticin, 29.9% deoxyrhaponticin; for dissolved proportion, % of theory, Test C / content found in solution, Test C: 200 mg of dry extract in 50 ml of ethanol 50% R; for dissolved proportion, % of theory, Test D / content found in solution, Test D: 200 mg of dry extract in 50 ml of ethanol 86% R; for dissolved proportion, % of theory, Test A / content found in solution, Test A: 200 mg of dry extract in 50 ml of glycerol R
Description: Determination of Stilbenes by High-Pressure Liquid Chromatography (HPLC) in the Dry Extract from Rhapontic Rhubarb Root
50 mg of extract, mixed with 40 ml of a mixture of acetone and water (1:1) in an amber glass vessel, treated in an ultrasonic bath for 15 minutes and made up to 50 ml with the solvent mixture and then diluted 1:10 with the solvent mixture.
A high-pressure liquid chromatography (HPLC) is carried out on a portion of the solution obtained above, with the following system parameters:
For a quantitative determination, the respective peak areas are found and compared with the corresponding peak areas of a standard extract of known composition.
a) Dissolving Tests with ERr 731® in Ethanol and Glycerol:
Content of the extract: • 61.9% rhaponticin • 29.9% deoxyrphaponticin

[2] = pH-dependent solubility of rhaponticin in aqueous solutions; format: physicochemical
Description: Use is made of this for its isolation. Since, besides other organic acids, the root in particular has a high content of oxalic acid (⅔ in water-soluble and ⅓ in bound form), this must be neutralized during the isolation in order to prevent the pH drifting into the acidic range and thus to inhibit premature precipitation of the rhaponticin. This is achieved by using calcium oxide. The latter is employed as quicklime solution with a pH of 12.4-12.6.

dissolved proportion, % of theory, Test B [1]	content found in solution, Test B [1]	dissolved proportion, % of theory, Test C [1]	content found in solution, Test C [1]	dissolved proportion, % of theory, Test D [1]	content found in solution, Test D [1]	dissolved proportion, % of theory, Test A [1]	content found in solution, Test A [1]	solubility in aqueous solutions ([2]; acidic pH range (pH 3.4-3.6))	solubility in aqueous solutions ([2]; alkaline pH range)	SMILES
(84.3% of theory)	52.2% rhaponticin	(95.0% of theory)	58.8% rhaponticin	(96.6% of theory)	59.8% rhaponticin	(89.0% of theory)	55.1% rhaponticin	precipitated	readily soluble	COc1ccc(C=Cc2cc(O)cc(O[C@@H]3O[C@H](CO)[C@@H](O)[C@H](O)[C@H]3O)c2)cc1O [rhaponticin, 3,3′,5-Trihydroxy-4′-methoxystilbene-3-O-β-D-glucopyranoside]
(84.2% of theory)	25.2% deoxyrhaponticin	(97.0% of theory)	29.0% deoxyrhaponticin	(98.7% of theory)	29.5% deoxyrhaponticin	(90.6% of theory)	27.1% deoxyrhaponticin	–	–	COc1ccc(C=Cc2cc(O)cc(O[C@@H]3O[C@H](CO)[C@@H](O)[C@H](O)[C@H]3O)c2)cc1 [deoxyrhaponticin]
